Experiment [1] has as its system K562. Briefly: Antiproliferative activity against human K562 cells assessed as inhibition of cell proliferation incubated for 48 hrs by MTT assay. The experiment is classed as functional, cell-based. The settings on record: K562, 48 h.
Experiment [2] concerns PC-3. Briefly: Antiproliferative activity against human PC3 cells assessed as inhibition of cell proliferation incubated for 48 hrs by MTT assay. The experiment is classed as functional, cell-based. The settings on record: PC-3, 48 h. (Tetrazolium assays rely on reduction of a dye to a coloured formazan, in cell work by metabolically active cells.)
Experiment [3] concerns A549. Briefly: Antiproliferative activity against human A549 cells assessed as inhibition of cell proliferation incubated for 48 hrs by MTT assay. The settings on record: A549, 48 h. The experiment is classed as functional, cell-based.
Experiment [4] relates to NCI-H1299. Briefly: Antiproliferative activity against human NCI-H1299 cells assessed as inhibition of cell proliferation incubated for 48 hrs by MTT assay. The experiment is classed as functional, cell-based. The settings on record: NCI-H1299, 48 h.
For experiment [5], the system named is MRC5. Briefly: Cytotoxicity against human MRC5 cells assessed as inhibition of cell proliferation incubated for 48 hrs by MTT assay. The settings on record: MRC5, 48 h. The experiment is classed as cell-based.
Experiment [6] deals with K562. Briefly: Induction of apoptosis in human K562 cells at 5 to 20 uM measured after 24 hrs by AO-EB staining based fluorescence microscopy analysis. The experiment is classed as functional, cell-based.
Experiment [7] has as its system K562. Briefly: Induction of apoptosis in human K562 cells at assessed as live cells at 5 uM measured after 24 hrs by AnnexinV-FITC/propidium iodide staining based flow cytometry (reference value: 96 %). The experiment is classed as functional. A general note: In flow cytometry, cells or beads pass a laser one at a time.
In experiment [8] the test system is K562. Briefly: Induction of apoptosis in human K562 cells at assessed as early apoptotic cells at 5 uM measured after 24 hrs by AnnexinV-FITC/propidium iodide staining based flow cytometry (reference value: 1.45 %). The experiment is classed as functional.
In experiment [9] the test system is K562. Briefly: Induction of apoptosis in human K562 cells at assessed as late apoptotic cells at 5 uM measured after 24 hrs by AnnexinV-FITC/propidium iodide staining based flow cytometry (reference value: 2.06 %). The experiment is classed as functional.
Experiment [10] concerns K562. Briefly: Induction of apoptosis in human K562 cells at assessed as necrotic cells at 5 uM measured after 24 hrs by AnnexinV-FITC/propidium iodide staining based flow cytometry (reference value: 0.518 %). The experiment is classed as functional.
Experiment [11] deals with K562. Briefly: Induction of apoptosis in human K562 cells at assessed as live cells at 10 uM measured after 24 hrs by AnnexinV-FITC/propidium iodide staining based flow cytometry (reference value: 96 %). The experiment is classed as functional.
In experiment [12] the test system is K562. Briefly: Induction of apoptosis in human K562 cells at assessed as early apoptotic cells at 10 uM measured after 24 hrs by AnnexinV-FITC/propidium iodide staining based flow cytometry (reference value: 1.45 %). The experiment is classed as functional.
In experiment [13] the test system is K562. Briefly: Induction of apoptosis in human K562 cells at assessed as late apoptotic cells at 10 uM measured after 24 hrs by AnnexinV-FITC/propidium iodide staining based flow cytometry (reference value: 2.06 %). The experiment is classed as functional.
For experiment [14], the system named is K562. Briefly: Induction of apoptosis in human K562 cells at assessed as necrotic cells at 10 uM measured after 24 hrs by AnnexinV-FITC/propidium iodide staining based flow cytometry (reference value: 0.518 %). The experiment is classed as functional.
The test system of experiment [15] is K562. Briefly: Induction of apoptosis in human K562 cells at assessed as live cells at 20 uM measured after 24 hrs by AnnexinV-FITC/propidium iodide staining based flow cytometry (reference value: 96 %). The experiment is classed as functional.
Experiment [16] relates to K562. Briefly: Induction of apoptosis in human K562 cells at assessed as early apoptotic cells at 20 uM measured after 24 hrs by AnnexinV-FITC/propidium iodide staining based flow cytometry (reference value: 1.45 %). The experiment is classed as functional.
Experiment [17] concerns K562. Briefly: Induction of apoptosis in human K562 cells at assessed as late apoptotic cells at 20 uM measured after 24 hrs by AnnexinV-FITC/propidium iodide staining based flow cytometry (reference value: 2.06 %). The experiment is classed as functional.
Experiment [18] has as its system K562. Briefly: Induction of apoptosis in human K562 cells at assessed as necrotic cells at 20 uM measured after 24 hrs by AnnexinV-FITC/propidium iodide staining based flow cytometry (reference value: 0.518 %). The experiment is classed as functional.
Experiment [19] deals with K562. Briefly: Induction of apoptosis in human K562 cells measured after 24 hrs by AnnexinV-FITC/propidium iodide staining based flow cytometry. The experiment is classed as functional, cell-based.
Experiment [20] has as its system K562. Briefly: Cell cycle arrest in human K562 cells assessed as increase in cell population at G1 phase at 5 uM measured after 24 hrs by flow cytometry analysis. The experiment is classed as functional, cell-based.
The test system of experiment [21] is K562. Briefly: Cell cycle arrest in human K562 cells assessed as decrease in cell population at S phase at 5 uM measured after 24 hrs by flow cytometry analysis. The experiment is classed as functional, cell-based.
Experiment [22] has as its system K562. Briefly: Induction of apoptosis in human K562 cells assessed as downregulation of Bcl-2 protein measured after 24 hrs by Western blot analysis. The experiment is classed as functional, cell-based.
Experiment [23] concerns K562. Briefly: Induction of apoptosis in human K562 cells assessed as upregulation of Bax protein expression measured after 24 hrs by Western blot analysis. The experiment is classed as functional, cell-based. A general note: In western blotting, separated proteins are transferred to a membrane and probed.

Each structure is given as a SMILES string. Activity calls are given as the source filed them. The calls are words filed in the database; no cut-off is given here.

`N#CC1=C(N)Oc2cc3oc(-c4ccccc4)cc(=O)c3c(O)c2C1c1ccccc1` (stereo unspecified): the IC50 (commonly the midpoint of a concentration-inhibition curve) in experiment [1] is 43 µM; in experiment [2], 46.9 µM; in experiment [3], 31.6 µM; in experiment [4], > 50 µM.
The corresponding values for `CC(C)(C)c1ccc(C2C(C#N)=C(N)Oc3cc4oc(-c5ccccc5)cc(=O)c4c(O)c32)cc1` (stereo unspecified) are 47.1 µM, > 50 µM, > 50 µM and > 50 µM.
For `Cc1ccc(C2C(C#N)=C(N)Oc3cc4oc(-c5ccccc5)cc(=O)c4c(O)c32)c(C)c1` (stereo unspecified), the IC50 in [1] was 19.7 µM; in [2], > 50 µM; in [3], > 50 µM; in [4] it was 42 µM.
With `COc1cccc(C2C(C#N)=C(N)Oc3cc4oc(-c5ccccc5)cc(=O)c4c(O)c32)c1OC` (stereo unspecified), the IC50 in [1] was 16.8 µM; in experiment [2] it was > 50 µM; in [3] it was > 50 µM; in experiment [4], > 50 µM.
Turning to `N#CC1=C(N)Oc2cc3oc(-c4ccccc4)cc(=O)c3c(O)c2C1c1ccccc1Br` (stereo unspecified), the IC50 in experiment [1] was 48.8 µM; in experiment [2], > 50 µM; in experiment [3], > 50 µM; in experiment [4] it was > 50 µM.
Consider `COc1c2c(c(O)c3c(=O)cc(-c4ccccc4)oc13)C(c1ccc(C)cc1)C(C#N)=C(N)O2` (stereo unspecified), for which the IC50 in experiment [1], in [2], in experiment [3] and in experiment [4] was > 50 µM in each case.
As for `N#CC1=C(N)Oc2cc3oc(-c4ccccc4)cc(=O)c3c(O)c2C1c1ccc(Cl)cc1` (stereo unspecified), the IC50 in [1] was 12.4 µM; in experiment [2], > 50 µM; in [3] it was > 50 µM; in experiment [4] it was 33.1 µM.
For the compound `N#CC1=C(N)Oc2cc3oc(-c4ccccc4)cc(=O)c3c(O)c2C1c1ccccc1F` (stereo unspecified), the 50% inhibitory concentration (IC50) was found to be 28.1 µM in experiment [1], 43.2 µM in [2], 44 µM in [3] and 45.3 µM in experiment [4].
Regarding `COc1ccc(C2C(C#N)=C(N)Oc3cc4oc(-c5ccccc5)cc(=O)c4c(O)c32)cc1` (stereo unspecified), the IC50 was 38.1 µM in experiment [1], > 50 µM in experiment [2], > 50 µM in experiment [3] and 40.1 µM in experiment [4].
Regarding `O=c1cc(-c2ccccc2)oc2cc(O)cc(O)c12` [CHRYSIN], the IC50 in [1] was > 50 µM; in experiment [2], > 50 µM; in experiment [3], > 50 µM; in experiment [4] it was > 50 µM; in experiment [5], > 100 µM.
In the case of `N#CC1=C(N)Oc2cc3oc(-c4ccccc4)cc(=O)c3c(O)c2C1c1ccc(F)cc1` (stereo unspecified), the IC50 in experiment [1] is 14.5 µM; in [2] it was 26.1 µM; in [3], 15.4 µM; in experiment [4], > 50 µM.
On the same counts, the results for `N#CC1=C(N)Oc2cc3oc(-c4ccccc4)cc(=O)c3c(O)c2C1c1cccc(F)c1` (stereo unspecified) are 18.6 µM, 30.4 µM, 20.5 µM and 40.8 µM.
As for `N#CC1=C(N)Oc2cc3oc(-c4ccccc4)cc(=O)c3c(O)c2C1c1cccc(Br)c1` (stereo unspecified), the IC50 in [1] was 6.41 µM; in [2], 36.8 µM; in [3] it was > 50 µM; in [4], 24.2 µM; in [5] it was > 100 µM. For the same compound, in experiment [6], the result was Active. Besides, the Activity in [7] is recorded as 90.2%; in experiment [8], 5.87%; in experiment [9], 2.85%; in experiment [10], 1.06%; in experiment [11], 77.6%; in experiment [12], 14.4%. Further, the Activity in experiment [13] was 5.23%; in [14], 2.84%; in experiment [15], 62.4%; in experiment [16], 27.6%; in experiment [17] it was 7.58%; in [18], 2.44%. Further, the Activity result in experiment [19], in experiment [20], in [21], in experiment [22] and in experiment [23] was “Dose-dependent effect” in each case.
In the case of `N#CC1=C(N)Oc2cc3oc(-c4ccccc4)cc(=O)c3c(O)c2C1c1ccc(Br)cc1` (stereo unspecified), the IC50 in experiment [1] was 10.1 µM; in [2], 46.8 µM; in experiment [3], > 50 µM; in experiment [4], 18.8 µM.
For `N#CC1=C(N)Oc2cc3oc(-c4ccccc4)cc(=O)c3c(O)c2C1c1ccccc1Cl` (stereo unspecified), the IC50 in [1] is 14.4 µM; in experiment [2], > 50 µM; in [3], > 50 µM; in experiment [4], 43.4 µM.
With `COc1ccc(-c2cc(=O)c3c(O)c4c(cc3o2)OC(N)=C(C#N)C4c2ccc(F)cc2)c(OC)c1` (stereo unspecified), the IC50 was 45.2 µM in [1], > 50 µM in experiment [2], > 50 µM in experiment [3] and 44.8 µM in experiment [4].
`N#CC1=C(N)Oc2cc3oc(-c4ccccc4)cc(=O)c3c(O)c2C1c1cccc([N+](=O)[O-])c1` (stereo unspecified): the half-inhibitory concentration (IC50) in experiment [1] turned out to be 15.6 µM; in experiment [2] it was 41.3 µM; in experiment [3], 31.9 µM; in experiment [4], 40.8 µM.
Regarding `COc1ccccc1C1C(C#N)=C(N)Oc2cc3oc(-c4ccccc4)cc(=O)c3c(O)c21` (stereo unspecified), the IC50 in experiment [1] is 20.2 µM; in experiment [2] it was > 50 µM; in [3] it was > 50 µM; in experiment [4], > 50 µM.
Take `Cc1ccc(C2C(C#N)=C(N)Oc3cc4oc(-c5ccccc5)cc(=O)c4c(O)c32)cc1` (stereo unspecified): the IC50 in experiment [1] amounted to 14.8 µM; in experiment [2] it was 28.4 µM; in experiment [3], 48.5 µM; in [4], 28.5 µM.
